The test system of the assay is HCV replicon. As to the kind of experiment: HCV replicon replication assay (NPT ELISA) in Huh-7 replicon-containing cells. In kind it is cell-based. The conditions noted are these: Hepatitis C virus, 72 h; HCV replicon in Huh-7 cells, three days incubation; read-out: EC50. The method, boiled down:
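Replication was scored by capture ELISA of neomycin phosphotransferase, whose level tracks replicon replication, after graded compound treatment. The cells were Huh-7 harbouring an HCV-IRES/neo/EMCV-IRES/NS3–NS5B/3′-NTR replicon, plated at 6000-7500 cells/well and dosed 24 h later at 60-70% confluence; interferon alpha was the positive control.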
(In general: A replicon is a self-replicating genome or part of one, used to study replication in cells.)
Turning to `C=C[C@@H]1C[C@]1(NC(=O)[C@@H]1C[C@@H](Oc2cc(-c3ccccc3)nc3cc(OC)ccc23)CN1C(=O)[C@@H](CC(=O)N1CCC(N(C)C(=O)OC(C)(C)C)C1)C(C)(C)C)C(=O)NS(=O)(=O)C1CC1` (stereo partly drawn) [Compound 161, tert-butyl 1-((S)-3-((2S,4R)-2-((1R,2S)-1-(cyclopropyl-sulfonylcarbamoyl)-2-vinylcyclopropyl-carbamoyl)-4-(7-methoxy-2-phenylquinolin-4-yloxy)pyrrolidine-1-carbonyl)-4,4-dimethyl-pentanoyl)pyrrolidin-3-yl(methyl)carbamate], the EC50 (commonly the concentration that produces a half-maximal response) was below 1000 nM.

On to `C=CC1C[C@]1(NC(=O)[C@@H]1C[C@@H](Oc2cc(-c3ccccc3)nc3cc(OC)ccc23)CN1C(=O)[C@@H](CC(=O)N1CCCC(C(F)(F)F)C1)C(C)(C)C)C(=O)NS(=O)(=O)C1CC1` (stereo partly drawn) [Compound 162, (2S,4R)-1-((2S)-2-tert-butyl-4-oxo-4-(3-(trifluoromethyl)pi-peridin-1-yl)butanoyl)-N-((1R,2S)-1-(cyclopropylsulfonyl-carbamoyl)-2-vinylcyclopropyl)-4-(7-methoxy-2-phenylquinolin-4-yloxy)pyrrolidine-2-carboxamide], for which the 50% effective concentration (EC50) was below 1000 nM.

For the compound `C=CC1C[C@]1(NC(=O)[C@@H]1C[C@@H](Oc2cc(-c3ccccc3)nc3cc(OC)ccc23)CN1C(=O)[C@@H](CC(=O)N1C(C)CCCC1C)C(C)(C)C)C(=O)NS(=O)(=O)C1CC1` (some centres unmarked) [Compound 163], the EC50 was below 1000 nM.

Turning to `C=CC1C[C@]1(NC(=O)[C@@H]1C[C@@H](Oc2cc(-c3ccccc3)nc3cc(OC)ccc23)CN1C(=O)[C@@H](CC(=O)N1CCN(C(=O)OC(C)(C)C)CC1)C(C)(C)C)C(=O)NS(=O)(=O)C1CC1` (stereo partly drawn) [Compound 164, tert-butyl 4-((S)-3-((2S,4R)-2-((1R,2S)-1-(cyclopropyl-sulfonylcarbamoyl)-2-vinylcyclopropyl-carbamoyl)-4-(7-methoxy-2-phenylquinolin-4-yloxy)pyrrolidine-1-carbonyl)-4,4-dime-thylpentanoyl)piper-azine-1-carboxylate], the EC50 is below 1000 nM.

Consider `C=C[C@@H]1C[C@]1(NC(=O)[C@@H]1C[C@@H](Oc2cc(-c3ccccn3)nc3cc(OC)ccc23)CN1C(=O)[C@@H](CC(=O)N1CCCCC1)C(C)(C)C)C(=O)NS(=O)(=O)C1CC1` [Compound 165, (2S,4R)-1-((S)-2-tert-butyl-4-oxo-4-(piperidin-1-yl)butanoyl)-N-((1R,2S)-1-(cyclo-propylsulfonyl-carbamoyl)-2-vinyl-cyclopropyl)-4-(7-methoxy-2-(pyridin-2-yl)quinolin-4-yloxy)pyrrolidine-2-carboxamide], for which the EC50 is below 1000 nM.

Consider `C=C[C@@H]1C[C@]1(NC(=O)[C@@H]1C[C@@H](Oc2cc(-c3ccccn3)nc3cc(OC)ccc23)CN1C(=O)[C@@H](CC(=O)N1CCOCC1)C(C)(C)C)C(=O)NS(=O)(=O)C1CC1` [Compound 166, (2S,4R)-1-((S)-2-tert-butyl-4-morpholino-4-oxobutanoyl)-N-((1R,2S)-1-(cyclopropylsulfonyl-carbamoyl)-2-vinylcyclopropyl)-4-(7-methoxy-2-(pyridin-2-yl)quinolin-4-yloxy)pyrrolidine-2-carboxamide], for which the half-maximal effective concentration (EC50) was below 1000 nM.

On to `C=C[C@@H]1C[C@]1(NC(=O)[C@@H]1C[C@@H](Oc2cc(-c3ccccc3)nc3cc(OC)ccc23)CN1C(=O)[C@@H](CC(=O)N1CCC[C@H](NC(=O)OC(C)(C)C)C1)C(C)(C)C)C(=O)NS(=O)(=O)C1CC1` [Compound 167], for which the concentration giving a half-maximal response (EC50) is below 1000 nM.

For the compound `C=CC1C[C@]1(NC(=O)[C@@H]1C[C@@H](Oc2cc(-c3ccccc3)nc3cc(OC)ccc23)CN1C(=O)[C@@H](CC(=O)N1CCCC(CNC(=O)OC(C)(C)C)C1)C(C)(C)C)C(=O)NS(=O)(=O)C1CC1` (stereo partly drawn) [Compound 168, tert-butyl (1-((S)-3-((2S,4R)-2-((1R,2S)-1-(cyclopropyl-sulfonylcarbamoyl)-2-vinylcyclopropyl-carbamoyl)-4-(7-methoxy-2-phenylquinolin-4-yloxy)pyrrolidine-1-carbonyl)-4,4-dime-thylpentanoyl)piper-idin-3-yl)methylcarbamate], the EC50 was below 1000 nM.

The values are drawn from patent US9133115B2 (ACHILLION PHARMACEUTICALS, INC., priority 2008, dated 2015).
